Patent US20060222675A1, “Personal care compositions with color changing indicator” (priority 2005, published 2006)

Test system: bacteria, virus and yeast
Assay: germicidal efficacy of surfactant-detergent compounds
Conditions: surfactants tested separately and in combination
From the text: Disinfecting surfactant-detergent compounds are also used in the liquid composition. Surfactants are effective germicides and attack the membranes of the organisms. Also, the surfactants are surface active reducing surface tension. […] It is thought that the surfactant has two characteristics which contribute to this invention. Those being germicidal activity including effectiveness over a wide range of organisms including bacteria, virus and yeast and providing a reduction of the surface tension of the composition to achieve effective spread and distribution if the germicide on the surface to be disinfected. Two different types of surfactants were tested separately and in combination for efficacy. […] There are other compounds which have the properties of germicide-surfactants, and this invention is not limited to those compounds shown in the examples.

Row | Compound | efficacy as germicide-surfactant
1 | CCCCCCCCCCCCOS(=O)(=O)[O-].[Na+] [sodium dodecyl sulfate] | effective germicide-surfactants
2 | octyl phenoxy polyethoxyethanol | effective germicide-surfactants
